Experimental data from article PMC9506414, “Novel 2,6,9-Trisubstituted Purines as Potent CDK Inhibitors Alleviating Trastuzumab-Resistance of HER2-Positive Breast Cancers” (Pharmaceuticals, 2022).
One block for each molecule: values may come before it.

Columns and labels:
[1] = In vitro liver microsomal stability; assay type: in vitro ADME; settings: liver microsomes, pH 7.4, 30 m at 37 °C with NADPH regeneration system
Method: Each compound (final 1 μM, duplicated) was added to each 0.1 M PBS solution (pH 7.4) containing liver microsome of three different species (human, dog, mouse). After a brief (5 m) incubation at 37 °C, the NADPH regeneration system (Promega Corp., Madison, WI, USA) was added, then the mixture was incubated at 37 °C for 30 m. The reaction was terminated by adding acetonitrile containing an internal standard (chlorpropamide), then the mixture was centrifuged at 15,000 rpm, 4 °C for 5 m. The supernatant solution was injected to LC/MS/MS system (TSQ Vantage Triple-Stage Quadrupole Mass Spectrometer, ThermoFisher Scientific, Waltham, MA, USA). The remaining substrates were analyzed with Xcalibur 4.4 s/w using an MRM (multiple reaction monitoring) quantitation mode.

[2] = biological target: CYP3A4 (Homo sapiens, UniProt P08684); experiment: CYP inhibition; assay type: in vitro ADME
CYP3A4, sequence (P08684 whole entry): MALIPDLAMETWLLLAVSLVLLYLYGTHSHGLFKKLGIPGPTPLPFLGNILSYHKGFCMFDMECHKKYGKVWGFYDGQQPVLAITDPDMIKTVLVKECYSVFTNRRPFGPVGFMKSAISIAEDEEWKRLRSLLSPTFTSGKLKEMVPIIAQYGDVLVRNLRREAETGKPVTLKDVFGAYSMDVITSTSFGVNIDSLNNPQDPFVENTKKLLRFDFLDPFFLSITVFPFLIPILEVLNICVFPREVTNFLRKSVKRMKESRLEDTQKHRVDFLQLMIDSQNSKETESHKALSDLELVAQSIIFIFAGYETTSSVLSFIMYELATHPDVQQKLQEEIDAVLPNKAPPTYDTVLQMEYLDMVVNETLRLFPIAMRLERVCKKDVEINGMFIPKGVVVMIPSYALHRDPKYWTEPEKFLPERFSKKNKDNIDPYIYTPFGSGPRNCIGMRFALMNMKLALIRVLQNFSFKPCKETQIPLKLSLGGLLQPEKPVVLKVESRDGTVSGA
Method: Table 6 In vitro liver metabolic stability and activity against CYPs of potent analogues. | column: CYP % Activity at 10 μM / 3A4

[3] = system: WNT1; experiment: Western blot of WNT1 in SK-Br3 cells; assay type: cell-based, human; settings: 40 and 200 nM, 24 h
Text: For Western blot analysis, the following antibodies were used: anti-Pol II CTD (2629S, Cell Signaling Technology, Danvers, MA, USA), anti-Pol II p-CTD (Ser2) (13499S, Cell Signaling Technology), anti-cyclinK (A301-939A-M, Bethyl Laboratories), anti-IRS1 (3407S, Cell Signaling Technology), anti-WNT1 (SC-514531, Santa Cruz Biotechnology, Dallas, TX, USA), anti-β-actin (MAB1501R, Millipore, Burlington, MA, USA), and horseradish peroxidase (HRP)-conjugated secondary antibodies (anti-mouse GTX213112-01; anti-rabbit GTX213110-01) (Genetex, Irvine, CA, USA).
Cells were lysed with lysis buffer containing 50 mM Tris pH 7.4, 150 mM NaCl, 1 mM EDTA, 1% NP-40, and 0.25% sodium deoxycholate supplemented with protease-inhibitor and phosphatase-inhibitor cocktails. The lysate samples (25 μg/lane) were loaded onto 6–12% sodium dodecyl sulfate polyacrylamide gel and separated by electrophoresis (SDS-PAGE). The proteins were transferred to nitrocellulose membrane (Gelman Sciences, Ann Arbor, MI, USA) by electroblotting. The membranes were blocked with 5% non-fat dry milk (MB Cell, Seoul, Korea), incubated with primary antibodies for overnight at 4 °C. After the washing steps were performed with TBST solution, the membranes were incubated with HRP-conjugated secondary antibodies for 1 h at rt. […]

[4] = biological target: T1, ABL1 (Homo sapiens, UniProt P00519); experiment: Kinome-wide inhibition profiling; assay type: biochemical
T1 construct: purchased Reaction Biology Corp
Method: (§1) In vitro CDK12/cyclinK assays for all compounds and in vitro kinome-wide inhibition profiling of 30d at 10 μM were performed by a CRO company (Reaction Biology Corp., San Diego, CA, USA).

[5] = biological target: T2, ACVR1B (Homo sapiens, UniProt P36896); experiment: Kinome-wide inhibition profiling; assay type: biochemical
T2 construct: purchased Reaction Biology Corp
T2 sequence (P36896 24-505): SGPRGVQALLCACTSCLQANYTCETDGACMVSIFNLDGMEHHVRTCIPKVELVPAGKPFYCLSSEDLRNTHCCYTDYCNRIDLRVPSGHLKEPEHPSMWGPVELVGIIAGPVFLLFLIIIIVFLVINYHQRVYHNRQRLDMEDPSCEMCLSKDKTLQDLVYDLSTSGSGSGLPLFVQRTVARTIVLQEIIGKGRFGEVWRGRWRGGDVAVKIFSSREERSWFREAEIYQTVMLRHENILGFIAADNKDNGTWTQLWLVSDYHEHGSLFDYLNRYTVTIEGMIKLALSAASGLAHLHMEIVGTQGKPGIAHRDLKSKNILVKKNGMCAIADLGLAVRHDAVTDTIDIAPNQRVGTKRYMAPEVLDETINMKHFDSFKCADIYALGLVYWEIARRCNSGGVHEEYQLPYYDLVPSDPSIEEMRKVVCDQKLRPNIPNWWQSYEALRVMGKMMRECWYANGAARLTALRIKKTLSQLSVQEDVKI
Method: as §1

[6] = biological target: T3, BMX (Homo sapiens, UniProt P51813); experiment: Kinome-wide inhibition profiling; assay type: biochemical
T3 construct: purchased Reaction Biology Corp
Method: as §1

[7] = biological target: T4, CDK7/cyclinH (Homo sapiens, UniProt P50613); experiment: Kinome-wide inhibition profiling; assay type: biochemical
T4 construct: purchased Reaction Biology Corp
T4 sequence (P50613 whole entry): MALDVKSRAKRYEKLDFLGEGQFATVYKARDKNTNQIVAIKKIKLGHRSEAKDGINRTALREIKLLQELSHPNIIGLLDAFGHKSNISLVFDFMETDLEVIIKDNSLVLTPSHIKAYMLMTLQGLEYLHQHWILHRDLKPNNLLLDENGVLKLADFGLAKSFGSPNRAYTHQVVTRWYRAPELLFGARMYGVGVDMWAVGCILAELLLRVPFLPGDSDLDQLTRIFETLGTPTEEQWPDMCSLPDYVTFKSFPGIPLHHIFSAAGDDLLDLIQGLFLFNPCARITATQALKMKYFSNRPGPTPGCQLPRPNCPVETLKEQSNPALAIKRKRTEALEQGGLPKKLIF
T4 sequence (P51946 whole entry partner): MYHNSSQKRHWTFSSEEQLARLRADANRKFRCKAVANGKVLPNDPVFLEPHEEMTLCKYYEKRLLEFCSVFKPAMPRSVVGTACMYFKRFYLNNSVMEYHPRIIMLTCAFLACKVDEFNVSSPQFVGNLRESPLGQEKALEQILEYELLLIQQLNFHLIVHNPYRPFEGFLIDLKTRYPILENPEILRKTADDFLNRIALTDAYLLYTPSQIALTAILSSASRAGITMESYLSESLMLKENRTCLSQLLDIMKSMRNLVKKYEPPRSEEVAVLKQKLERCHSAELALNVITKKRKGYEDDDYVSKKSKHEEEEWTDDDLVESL
T4 sequence (P51948 whole entry partner): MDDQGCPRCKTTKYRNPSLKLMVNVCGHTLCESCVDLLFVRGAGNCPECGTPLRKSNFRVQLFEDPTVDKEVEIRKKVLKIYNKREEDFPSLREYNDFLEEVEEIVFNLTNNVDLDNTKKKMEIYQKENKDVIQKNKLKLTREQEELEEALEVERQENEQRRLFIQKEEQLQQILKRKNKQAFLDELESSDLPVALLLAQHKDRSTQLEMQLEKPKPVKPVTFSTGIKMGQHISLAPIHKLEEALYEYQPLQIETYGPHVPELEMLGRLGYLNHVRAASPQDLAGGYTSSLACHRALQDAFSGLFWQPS
Method: as §1

[8] = biological target: T5, DDR2 (Homo sapiens, UniProt Q16832); experiment: Kinome-wide inhibition profiling; assay type: biochemical
T5 construct: purchased Reaction Biology Corp
Method: as §1

[9] = biological target: T6, DRAK1 (Homo sapiens, UniProt Q9UEE5); experiment: Kinome-wide inhibition profiling; assay type: biochemical
T6 construct: purchased Reaction Biology Corp
Method: as §1

[10] = biological target: T7, DYRK4 (Homo sapiens, UniProt Q9NR20); experiment: Kinome-wide inhibition profiling; assay type: biochemical
T7 construct: purchased Reaction Biology Corp
Method: as §1

[11] = biological target: T8, IRAK1 (Homo sapiens, UniProt P51617); experiment: Kinome-wide inhibition profiling; assay type: biochemical
T8 construct: purchased Reaction Biology Corp
Method: as §1

[12] = biological target: T9, JNK1 (Homo sapiens, UniProt P45983); experiment: Kinome-wide inhibition profiling; assay type: biochemical
T9 construct: purchased Reaction Biology Corp
Method: as §1

[13] = biological target: T10, LATS1 (Homo sapiens, UniProt O95835); experiment: Kinome-wide inhibition profiling; assay type: biochemical
T10 construct: purchased Reaction Biology Corp
Method: as §1

[14] = biological target: T11, MAP3K1 (Homo sapiens, UniProt Q13233); experiment: Kinome-wide inhibition profiling; assay type: biochemical
T11 construct: purchased Reaction Biology Corp
Method: as §1

[15] = biological target: T12, MAP4K3 (Homo sapiens, UniProt Q8IVH8); experiment: Kinome-wide inhibition profiling; assay type: biochemical
T12 construct: purchased Reaction Biology Corp
T12 sequence (Q8IVH8 whole entry): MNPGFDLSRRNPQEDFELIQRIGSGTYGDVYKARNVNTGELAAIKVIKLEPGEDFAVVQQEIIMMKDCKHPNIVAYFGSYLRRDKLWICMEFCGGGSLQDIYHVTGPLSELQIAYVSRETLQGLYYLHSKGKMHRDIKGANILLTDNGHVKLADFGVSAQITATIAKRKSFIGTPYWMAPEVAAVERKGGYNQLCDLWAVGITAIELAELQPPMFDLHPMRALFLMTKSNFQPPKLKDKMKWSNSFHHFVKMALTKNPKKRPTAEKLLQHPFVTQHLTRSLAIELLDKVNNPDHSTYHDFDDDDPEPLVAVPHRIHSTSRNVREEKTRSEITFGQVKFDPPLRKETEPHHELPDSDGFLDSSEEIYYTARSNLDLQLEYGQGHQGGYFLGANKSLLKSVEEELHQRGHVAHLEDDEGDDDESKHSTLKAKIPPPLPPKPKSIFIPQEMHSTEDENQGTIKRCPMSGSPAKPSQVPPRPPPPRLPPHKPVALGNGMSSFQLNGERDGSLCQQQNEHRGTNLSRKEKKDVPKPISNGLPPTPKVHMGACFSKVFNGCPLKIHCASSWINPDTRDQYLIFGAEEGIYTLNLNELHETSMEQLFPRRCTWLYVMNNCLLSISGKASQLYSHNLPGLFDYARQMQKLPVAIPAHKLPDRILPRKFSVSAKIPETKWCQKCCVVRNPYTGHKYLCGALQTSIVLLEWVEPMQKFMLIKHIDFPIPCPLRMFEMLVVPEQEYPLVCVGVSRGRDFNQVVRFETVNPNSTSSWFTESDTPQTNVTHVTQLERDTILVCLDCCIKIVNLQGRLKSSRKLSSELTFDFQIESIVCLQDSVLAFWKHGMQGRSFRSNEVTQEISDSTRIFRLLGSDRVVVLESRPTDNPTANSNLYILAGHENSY
Method: as §1

[16] = biological target: T13, MAP4K4 (Homo sapiens, UniProt O95819); experiment: Kinome-wide inhibition profiling; assay type: biochemical
T13 construct: purchased Reaction Biology Corp
Method: as §1

[17] = biological target: T14, MLK1 (Homo sapiens, UniProt P80192); experiment: Kinome-wide inhibition profiling; assay type: biochemical
T14 construct: purchased Reaction Biology Corp
Method: as §1

[18] = biological target: T15, MLK3 (Homo sapiens, UniProt Q16584); experiment: Kinome-wide inhibition profiling; assay type: biochemical
T15 construct: purchased Reaction Biology Corp
Method: as §1

[19] = biological target: T16, NEK7 (Homo sapiens, UniProt Q8TDX7); experiment: Kinome-wide inhibition profiling; assay type: biochemical
T16 construct: purchased Reaction Biology Corp
Method: as §1

[20] = biological target: T17, NEK9 (Homo sapiens, UniProt Q8TD19); experiment: Kinome-wide inhibition profiling; assay type: biochemical
T17 construct: purchased Reaction Biology Corp
Method: as §1

[21] = biological target: T18, PAK3 (Homo sapiens, UniProt O75914); experiment: Kinome-wide inhibition profiling; assay type: biochemical
T18 construct: purchased Reaction Biology Corp
Method: as §1

[22] = biological target: T19, PHKg2 (Homo sapiens, UniProt P15735); experiment: Kinome-wide inhibition profiling; assay type: biochemical
T19 construct: purchased Reaction Biology Corp
Method: as §1

[23] = biological target: T20, RAF1 (Homo sapiens, UniProt P04049); experiment: Kinome-wide inhibition profiling; assay type: biochemical
T20 construct: purchased Reaction Biology Corp
Method: as §1

[24] = biological target: T21, TGFBR1 (Homo sapiens, UniProt P36897); experiment: Kinome-wide inhibition profiling; assay type: biochemical
T21 construct: purchased Reaction Biology Corp
Method: as §1

[25] = biological target: T22, WNK3 (Homo sapiens, UniProt Q9BYP7); experiment: Kinome-wide inhibition profiling; assay type: biochemical
T22 construct: purchased Reaction Biology Corp
Method: as §1

[26] = biological target: T23, YANK3 (Homo sapiens, UniProt Q86UX6); experiment: Kinome-wide inhibition profiling; assay type: biochemical
T23 construct: purchased Reaction Biology Corp
Method: as §1

[27] = biological target: CDK12/CyclinK (Homo sapiens, UniProt Q9NYV4); experiment: In vitro CDK12/cyclinK kinase assay; assay type: biochemical; set-up: purchased Reaction Biology Corp. (CRO that ran the assay); settings: Table 5; means and standard deviations from three independent assays; read-out: CDK12/CyclinK (IC50/μM)
CDK12/CyclinK, sequence (Q9NYV4 whole entry): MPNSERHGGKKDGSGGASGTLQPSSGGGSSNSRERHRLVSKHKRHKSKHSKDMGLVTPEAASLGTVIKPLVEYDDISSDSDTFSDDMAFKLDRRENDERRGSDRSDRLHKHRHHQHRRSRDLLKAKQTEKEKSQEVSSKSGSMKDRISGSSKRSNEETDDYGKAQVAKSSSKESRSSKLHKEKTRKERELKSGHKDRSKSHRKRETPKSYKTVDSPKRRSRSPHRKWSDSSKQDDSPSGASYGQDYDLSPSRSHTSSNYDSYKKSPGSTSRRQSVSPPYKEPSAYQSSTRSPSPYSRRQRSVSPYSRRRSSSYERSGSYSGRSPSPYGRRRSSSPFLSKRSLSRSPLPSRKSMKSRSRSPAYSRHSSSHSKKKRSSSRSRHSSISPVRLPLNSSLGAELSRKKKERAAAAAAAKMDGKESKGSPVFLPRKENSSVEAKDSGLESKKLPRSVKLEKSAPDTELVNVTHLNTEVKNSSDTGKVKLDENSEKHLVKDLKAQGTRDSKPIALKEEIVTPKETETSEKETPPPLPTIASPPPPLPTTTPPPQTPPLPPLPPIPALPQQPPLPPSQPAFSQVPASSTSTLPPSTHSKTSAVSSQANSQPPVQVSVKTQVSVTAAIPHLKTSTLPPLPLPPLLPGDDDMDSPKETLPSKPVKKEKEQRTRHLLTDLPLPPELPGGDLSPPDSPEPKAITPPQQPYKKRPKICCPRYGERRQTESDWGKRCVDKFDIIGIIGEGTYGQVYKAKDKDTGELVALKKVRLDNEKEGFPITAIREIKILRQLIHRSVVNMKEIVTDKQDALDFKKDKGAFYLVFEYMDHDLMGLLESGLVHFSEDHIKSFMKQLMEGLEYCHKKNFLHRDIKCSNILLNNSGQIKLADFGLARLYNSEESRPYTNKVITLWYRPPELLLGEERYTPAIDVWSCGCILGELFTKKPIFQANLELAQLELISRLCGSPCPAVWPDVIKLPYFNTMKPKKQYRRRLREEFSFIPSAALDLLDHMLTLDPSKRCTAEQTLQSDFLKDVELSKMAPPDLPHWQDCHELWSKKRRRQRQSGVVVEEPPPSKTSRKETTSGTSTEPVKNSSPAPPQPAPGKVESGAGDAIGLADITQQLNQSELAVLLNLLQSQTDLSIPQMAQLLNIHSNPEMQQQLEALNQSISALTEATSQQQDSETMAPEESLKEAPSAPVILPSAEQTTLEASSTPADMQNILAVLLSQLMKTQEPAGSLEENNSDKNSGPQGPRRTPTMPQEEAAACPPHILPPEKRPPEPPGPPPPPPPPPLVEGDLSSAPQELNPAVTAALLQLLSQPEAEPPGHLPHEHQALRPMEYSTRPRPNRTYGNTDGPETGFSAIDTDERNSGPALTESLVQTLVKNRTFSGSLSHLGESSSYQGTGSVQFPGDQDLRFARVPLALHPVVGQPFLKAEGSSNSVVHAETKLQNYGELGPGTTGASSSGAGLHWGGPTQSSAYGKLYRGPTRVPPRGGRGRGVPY
CDK12/CyclinK, sequence (O75909 whole entry partner): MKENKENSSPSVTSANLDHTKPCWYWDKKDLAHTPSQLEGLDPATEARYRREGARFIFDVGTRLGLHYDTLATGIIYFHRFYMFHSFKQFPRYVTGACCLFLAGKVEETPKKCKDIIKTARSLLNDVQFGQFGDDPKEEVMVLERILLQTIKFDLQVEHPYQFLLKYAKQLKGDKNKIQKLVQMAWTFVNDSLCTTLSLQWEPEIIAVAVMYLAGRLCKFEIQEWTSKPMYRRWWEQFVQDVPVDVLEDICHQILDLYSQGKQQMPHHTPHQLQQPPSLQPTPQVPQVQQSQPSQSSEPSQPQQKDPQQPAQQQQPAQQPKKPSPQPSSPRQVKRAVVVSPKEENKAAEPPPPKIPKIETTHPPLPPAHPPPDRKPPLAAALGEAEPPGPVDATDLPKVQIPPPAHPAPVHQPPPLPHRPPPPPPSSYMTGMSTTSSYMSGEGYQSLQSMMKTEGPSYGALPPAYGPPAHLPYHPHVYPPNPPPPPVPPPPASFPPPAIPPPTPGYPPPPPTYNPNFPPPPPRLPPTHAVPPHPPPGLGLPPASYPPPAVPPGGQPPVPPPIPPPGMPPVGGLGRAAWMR
Method: as §1

Structure (SMILES): CCn1cnc2c(NCc3ccc(-c4ccccn4)nc3)nc(-c3ccc(N)nc3)nc21 [Compound 30d, N-([2,2′-Bipyridin]-5-ylmethyl)-2-(6-aminopyridin-3-yl)-9-ethyl-9H-purin-6-amine]
remaining at 30 min, 1 μM ([1]; dog): 46.2%
remaining at 30 min, 1 μM ([1]; human): 64.8%
remaining at 30 min, 1 μM ([1]; mouse): 49.9%
CYP % Activity at 10 μM 3A4 [2]: 43.0%
WNT1 expression level (Western blot) [3]: strong suppression of IRS1 and WNT1
remaining activity at 10 µM [4]: 61.2%
remaining activity at 10 µM [5]: 132%
remaining activity at 10 µM [6]: 141%
inhibition at 10 µM [7]: > 95%
remaining activity at 10 µM [7]: 3.8%
remaining activity at 10 µM [8]: 87.2%
remaining activity at 10 µM [9]: 79.3%
remaining activity at 10 µM [10]: 89.3%
remaining activity at 10 µM [11]: 79%
remaining activity at 10 µM [12]: 41.6%
remaining activity at 10 µM [13]: 85%
remaining activity at 10 µM [14]: 87%
remaining activity at 10 µM [15]: 49.6%
remaining activity at 10 µM [16]: 103%
remaining activity at 10 µM [17]: 27.9%
remaining activity at 10 µM [18]: 51.4%
remaining activity at 10 µM [19]: 93.2%
remaining activity at 10 µM [20]: 90%
remaining activity at 10 µM [21]: 29.1%
remaining activity at 10 µM [22]: 56.9%
remaining activity at 10 µM [23]: 68.6%
remaining activity at 10 µM [24]: 112%
remaining activity at 10 µM [25]: 74.5%
remaining activity at 10 µM [26]: 86.6%
IC50 [27]: 0.021 ± 0.007 µM

remaining at 30 min, 1 μM ([1]; dog): 67.6%
remaining at 30 min, 1 μM ([1]; human): 100%
remaining at 30 min, 1 μM ([1]; mouse): 85%
CYP % Activity at 10 μM 3A4 [2]: 92.8%
IC50 [27]: 0.085 ± 0.011 µM
Structure (SMILES): CCn1cnc2c(NCc3ccc(-c4ccccn4)nc3)nc(-c3cnc(N)nc3)nc21 [Compound 30e, N-([2,2′-Bipyridin]-5-ylmethyl)-2-(2-aminopyrimidin-5-yl)-9-ethyl-9H-purin-6-amine]
WNT1 expression level (Western blot) [3]: strong suppression of IRS1 and WNT1
